From US4619925A, “3-Propenyl cephalosporin derivatives” (priority 1985, dated 1986)
≈ marks a conversion by molar mass, not a printed value. Like-named read-outs stand apart in the source and are kept apart here.

Tests used:
S. aureus A9602 = test: MIC, agar dilution technique (Mueller-Hinton Agar); type: cell-based; conditions: Staphylococcus aureus; S. aureus A9602; Gp-Ib, penicillin resistant; read-out: Minimum Inhibitory Concentration
Description: (§1) Each of these groups of organisms is constituted of five individual strains of microorganism. The Gp-Ia organisms are Gram-positive staphylococci which are sensitive to penicillin. The Gp-Ib organisms are Gram-positive staphylococci which are resistant to penicillin and produce penicillinase. The Gn-Ia organisms are Gram-negative bacteria which are sensitive to ampicillin and cephalothin. The Gn-Ib organisms are Gram-negative bacteria which are resistant to ampicillin and cephalothin.

E. coli A9660 = test: MIC, agar dilution technique (Mueller-Hinton Agar); type: cell-based; conditions: Escherichia coli; E. coli A9660; Gn-Ia, ampicillin and cephalothin sensitive; read-out: Minimum Inhibitory Concentration
Description: as §1

E. coli A20341-1 = test: MIC, agar dilution technique (Mueller-Hinton Agar); type: cell-based; conditions: Escherichia coli, A203411; E. coli A20341-1; Gn-Ib, ampicillin and cephalothin resistant; read-out: Minimum Inhibitory Concentration
Description: as §1

S. aureus Terajima = test: MIC, agar dilution technique (Mueller-Hinton Agar); type: cell-based; conditions: Staphylococcus aureus, Gp-Ia, penicillin sensitive, read-out: Minimum Inhibitory Concentration
Description: as §1

E. coli Juhl [1] = test: MIC, agar dilution technique (Mueller-Hinton Agar); type: cell-based; conditions: Escherichia coli; E. coli Juhl; Gn-Ia, ampicillin and cephalothin sensitive; read-out: Minimum Inhibitory Concentration
Description: as §1

S. aureus A9534 = test: MIC, agar dilution technique (Mueller-Hinton Agar); type: cell-based; conditions: Staphylococcus aureus, Gp-Ia, penicillin sensitive, read-out: Minimum Inhibitory Concentration
Description: as §1

S. aureus No. 193 = test: MIC, agar dilution technique (Mueller-Hinton Agar); type: cell-based; conditions: Staphylococcus aureus, Gp-Ib, penicillin resistant, read-out: Minimum Inhibitory Concentration
Description: as §1

K. pneumoniae A20345 = test: MIC, agar dilution technique (Mueller-Hinton Agar); type: cell-based; conditions: Klebsiella pneumoniae, Gn-Ib, ampicillin and cephalothin resistant, read-out: Minimum Inhibitory Concentration
Description: as §1

K. pneumoniae A20346 = test: MIC, agar dilution technique (Mueller-Hinton Agar); type: cell-based; conditions: Klebsiella pneumoniae; K. pneumoniae A20346; Gn-Ib, ampicillin and cephalothin resistant; read-out: Minimum Inhibitory Concentration
Description: as §1

S. aureus Smith = test: MIC, agar dilution technique (Mueller-Hinton Agar); type: cell-based; conditions: Staphylococcus aureus, Gp-Ia, penicillin sensitive, read-out: Minimum Inhibitory Concentration
Description: as §1

P. mirabilis A9900 = test: MIC, agar dilution technique (Mueller-Hinton Agar); type: cell-based; conditions: Proteus mirabilis; P. mirabilis A9900; Gn-Ia, ampicillin and cephalothin sensitive; read-out: Minimum Inhibitory Concentration
Description: as §1

E coli RGN-823 = test: MIC, agar dilution technique (Mueller-Hinton Agar); type: cell-based; conditions: Escherichia coli, RGN823, Gn-Ib, ampicillin and cephalothin resistant, read-out: Minimum Inhibitory Concentration
Description: as §1

S. aureus A9497 = test: MIC, agar dilution technique (Mueller-Hinton Agar); type: cell-based; conditions: Staphylococcus aureus, Gp-Ia, penicillin sensitive, read-out: Minimum Inhibitory Concentration
Description: as §1

S. aureus A9601 = test: MIC, agar dilution technique (Mueller-Hinton Agar); type: cell-based; conditions: Staphylococcus aureus; S. aureus A9601; Gp-Ia, penicillin sensitive; read-out: Minimum Inhibitory Concentration
Description: as §1

E. coli A15148 = test: MIC, agar dilution technique (Mueller-Hinton Agar); type: cell-based; conditions: Escherichia coli; E. coli A15148; Gn-Ib, ampicillin and cephalothin resistant; read-out: Minimum Inhibitory Concentration
Description: as §1

S. aureus BX-1633-2 = test: MIC, agar dilution technique (Mueller-Hinton Agar); type: cell-based; conditions: Staphylococcus aureus
Description: as §1

K. pneumoniae D11 = test: MIC, agar dilution technique (Mueller-Hinton Agar); type: cell-based; conditions: Klebsiella pneumoniae; K. pneumoniae D11; Gn-Ia, ampicillin and cephalothin sensitive; read-out: Minimum Inhibitory Concentration
Description: as §1

P. mirabilis A9554 = test: MIC, agar dilution technique (Mueller-Hinton Agar); type: cell-based; conditions: Proteus mirabilis; P. mirabilis A9554; Gn-Ia, ampicillin and cephalothin sensitive; read-out: Minimum Inhibitory Concentration
Description: as §1

S. aureus Russell = test: MIC, agar dilution technique (Mueller-Hinton Agar); type: cell-based; conditions: Staphylococcus aureus, read-out: Minimum Inhibitory Concentration
Description: as §1

S. aureus A15092 = test: MIC, agar dilution technique (Mueller-Hinton Agar); type: cell-based; conditions: Staphylococcus aureus, Gp-Ib, penicillin resistant, read-out: Minimum Inhibitory Concentration
Description: as §1

Mouse urinary recovery = type: in vivo, mice; conditions: 20 mg/kg; for dose excreted at 2 h / dose excreted at 4 h / dose excreted at 6 h / dose excreted at 24 h: mouse, urine, po; for dose excreted at 2 h: 0-2 hr; for dose excreted at 4 h: 2-4 hr; for dose excreted at 6 h: 4-6 hr
H. influenzae A22482 = test: In vitro activity against fastidious bacteria; type: cell-based; conditions: Haemophilus influenzae
Description: (§2) Table 5 contains comparative data for in vitro antibacterial activity against fastidious bacteria.

N. gonorrheae A20155 = test: In vitro activity against fastidious bacteria; type: cell-based; conditions: N. gonorrheae A20155; read-out: MIC
Description: as §2

S. pneumoniae A9585 = test: In vitro activity against fastidious bacteria; type: cell-based; conditions: Streptococcus pneumoniae; S. pneumoniae A9585; read-out: MIC
Description: as §2

S. pyogenes A15040 = test: In vitro activity against fastidious bacteria; type: cell-based; conditions: Streptococcus pyogenes; S. pyogenes A15040; read-out: MIC
Description: as §2

S. pneumoniae Type I = test: In vitro activity against fastidious bacteria; type: cell-based; conditions: Streptococcus pneumoniae; S. pneumoniae Type I; read-out: MIC
Description: as §2

E. coli Juhl [2] = test: Protective dose for mice infected with lethal inoculum; type: in vivo; conditions: 50% survival after five days
Description: The data in Table 2 are results of protective doses (PD50) for mice infected with a lethal inoculum of bacteria. Two different bacteria were employed in the studies, one a Gram-positive organism (S. aureus Smith) and the other a Gram-negative organism (E. coli Juhl). The PD50 is that dose which, when administered to a group of injected mice, results in 50% survival after five days. Normally untreated infected mice die within three days following injection of the lethal inoculum.

[3] = tested on: Gp-Ib organisms (Gram-positive staphylococci resistant to penicillin); test: In vitro activity, agar dilution, group of five strains; type: cell-based
Description: as §1

[4] = tested on: Gp-Ia organisms (Gram-positive staphylococci sensitive to penicillin); test: as above; type: cell-based
Description: as §1

[5] = tested on: Gram-positive bacteria, Gram-negative bacteria and fastidious bacteria; test: Antibacterial activity (summary statement); type: cell-based
fastidious bacteria = test: In vitro antibacterial activity against fastidious bacteria (overall); type: cell-based
Description: as §2

[6] = p.o., 6-24 hr, read-out: Mouse urinary recovery 6-24 hr
[7] = p.o., total, read-out: Mouse urinary recovery Total

C/C=C\C1=C(C(=O)O)N2C(=O)C(NC(=O)[C@H](N)c3ccc(O)cc3)[C@H]2SC1 (stereo partly drawn) [BMY-28100, 7-[D-2-amino-2-(4-hydroxyphenyl)acetamido]-3-[(Z)-1-propen-1-yl]-3-cephem-4-carboxylic acid]
MIC (S. aureus A9602): 0.8 µg/mL (≈ 2.05 µM) | MIC (E. coli A9660): 0.8 µg/mL (≈ 2.05 µM) | MIC (E. coli A20341-1): 25 µg/mL (≈ 64.2 µM) | MIC (S. aureus Terajima): 0.4 µg/mL (≈ 1.03 µM) | MIC (E. coli Juhl [1]): 1.6 µg/mL (≈ 4.11 µM) | MIC (S. aureus A9534): 0.4 µg/mL (≈ 1.03 µM) | MIC (S. aureus No. 193): 1.6 µg/mL (≈ 4.11 µM) | MIC (K. pneumoniae A20345): 6.3 µg/mL (≈ 16.2 µM) | MIC (K. pneumoniae A20346): 25 µg/mL (≈ 64.2 µM) | MIC (S. aureus Smith): 0.4 µg/mL (≈ 1.03 µM) | MIC (P. mirabilis A9900): 0.8 µg/mL (≈ 2.05 µM) | MIC (E coli RGN-823): > 50 µg/mL | MIC (S. aureus A9497): 0.4 µg/mL (≈ 1.03 µM) | MIC (S. aureus A9601): 0.8 µg/mL (≈ 2.05 µM) | MIC (E. coli A15148): 50 µg/mL (≈ 128 µM) | MIC (S. aureus BX-1633-2; BX16332, S. aureus BX-1633-2, Gp-Ib, penicillin resistant, read-out: Minimum Inhibitory Concentration): 0.8 µg/mL (≈ 2.05 µM) | MIC (K. pneumoniae D11): 0.8 µg/mL (≈ 2.05 µM) | MIC (P. mirabilis A9554): 0.8 µg/mL (≈ 2.05 µM) | MIC (S. aureus Russell; S. aureus Russell, Gp-Ib, penicillin resistant): 0.8 µg/mL (≈ 2.05 µM) | MIC (S. aureus A15092): 1.6 µg/mL (≈ 4.11 µM) | dose excreted at 2 h (Mouse urinary recovery): 60% | dose excreted at 4 h (Mouse urinary recovery): 5.3% | dose excreted at 6 h (Mouse urinary recovery): 1.3% | dose excreted at 24 h (Mouse urinary recovery; [6]): 2.3% | dose excreted at 24 h (Mouse urinary recovery; [7]): 69% | MIC (H. influenzae A22482; H. influenzae A22482, ampicillin-sensitive (ABPC-S), read-out: MIC): 0.8 µg/mL (≈ 2.05 µM) | MIC (N. gonorrheae A20155): 0.8 µg/mL (≈ 2.05 µM) | MIC (S. pneumoniae A9585): 0.1 µg/mL (≈ 0.257 µM) | MIC (S. pyogenes A15040): 0.05 µg/mL (≈ 0.128 µM) | MIC (S. pneumoniae Type I): 0.1 µg/mL (≈ 0.257 µM)

C/C=C\C1=C(C(=O)O)N2C(=O)C(NC(=O)[C@H](N)c3cccc(O)c3)[C@H]2SC1 (stereo partly drawn) [BMY-28272, 7-[(D)-2-amino-2-(3-hydroxyphenyl)acetamido]-3-[(Z)-1-propenyl]-3-cephem-4-carboxylic acid]
MIC (S. aureus A9602): 0.8 µg/mL (≈ 2.05 µM) | MIC (E. coli A9660): 0.8 µg/mL (≈ 2.05 µM) | MIC (E. coli A20341-1): 12.5 µg/mL (≈ 32.1 µM) | MIC (S. aureus Terajima): 0.4 µg/mL (≈ 1.03 µM) | MIC (E. coli Juhl [1]): 1.6 µg/mL (≈ 4.11 µM) | MIC (S. aureus A9534): 0.4 µg/mL (≈ 1.03 µM) | MIC (S. aureus No. 193): 1.6 µg/mL (≈ 4.11 µM) | MIC (K. pneumoniae A20345): 6.3 µg/mL (≈ 16.2 µM) | MIC (K. pneumoniae A20346): 50 µg/mL (≈ 128 µM) | MIC (S. aureus Smith): 0.4 µg/mL (≈ 1.03 µM) | MIC (P. mirabilis A9900): 0.8 µg/mL (≈ 2.05 µM) | MIC (E coli RGN-823): 50 µg/mL (≈ 128 µM) | MIC (S. aureus A9497): 0.4 µg/mL (≈ 1.03 µM) | MIC (S. aureus A9601): 0.8 µg/mL (≈ 2.05 µM) | MIC (E. coli A15148): 25 µg/mL (≈ 64.2 µM) | MIC (S. aureus BX-1633-2; BX16332, read-out: Minimum Inhibitory Concentration): 1.6 µg/mL (≈ 4.11 µM) | MIC (K. pneumoniae D11): 0.8 µg/mL (≈ 2.05 µM) | MIC (P. mirabilis A9554): 0.8 µg/mL (≈ 2.05 µM) | MIC (S. aureus Russell): 1.6 µg/mL (≈ 4.11 µM) | MIC (S. aureus A15092): 1.6 µg/mL (≈ 4.11 µM) | PD50 (protective dose) (E. coli Juhl [2]; im): 1.9 | PD50 (protective dose) (E. coli Juhl [2]; po): 2.6 | activity relative to BMY-28100 [3]: slightly less active than BMY-28100 | activity relative to cephalexin or cefaclor [3]: three times more active than cephalexin or cefaclor | activity relative to BMY-28100 [4]: same as BMY-28100 | activity relative to cephalexin and cefaclor [4]: two or four times more active than cephalexin and cefaclor | total recovery ratio relative to BMY-28100 and cefaclor (Mouse urinary recovery; p.o.): smaller than those of BMY-28100 and cefaclor | rate of excretion relative to BMY-28100 and cefaclor (Mouse urinary recovery; p.o., from the 6-24 hours period): slower than BMY-28100 and cefaclor | dose excreted at 2 h (Mouse urinary recovery): 37% | dose excreted at 4 h (Mouse urinary recovery): 4.4% | dose excreted at 6 h (Mouse urinary recovery): 0.4% | dose excreted at 24 h (Mouse urinary recovery; [6]): 8.7% | dose excreted at 24 h (Mouse urinary recovery; [7]): 51% | activity against Gram-positive bacteria [5]: strong activity against Gram-positive bacteria | spectrum of activity against Gram-negative and fastidious bacteria relative to cephalexin and cefaclor [5]: improved spectrum of activity against Gram-negative bacteria and fastidious bacteria relative to cephalexin and cefaclor | MIC (H. influenzae A22482; A22482): 0.4 µg/mL (≈ 1.03 µM) | MIC (N. gonorrheae A20155): 0.4 µg/mL (≈ 1.03 µM) | MIC (S. pneumoniae A9585): 0.1 µg/mL (≈ 0.257 µM) | MIC (S. pyogenes A15040): 0.05 µg/mL (≈ 0.128 µM) | MIC (S. pneumoniae Type I): 0.1 µg/mL (≈ 0.257 µM) | activity relative to BMY-28100 (fastidious bacteria): almost comparable or better than BMY-28100 | activity relative to cefaclor or cephalexin (fastidious bacteria): much better than cefaclor or cephalexin
